Here are results for eleven compounds from PubChem BioAssay (NCI).

Where “and” joins values, the source holds several entries; their conditions need not be identical. Equal values may be shown once.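 Cultured in 96-well plates, cells were exposed to test compound for 48 hours across five concentrations. GI50 is the concentration that inhibits growth by half. At the TGI there is no net growth.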

Test systems include A498 renal; HCT-116 colon; HCT-15 colon; MALME-3M melanoma; MOLT-4 leukemia; NCI/ADR-RES ovarian; OVCAR-5 ovarian; SK-MEL-5 melanoma; T-47D breast; U251 CNS.
Common to all, as to assay: NCI-60 cell line screen, 48 h

`CCOc1ccc(N(C)c2ccc(/C=C/C3=[N+](C)c4ccccc4C3(C)C)cc2)cc1`: the GI50 was 0.189 µM with A498 renal; 0.0725 µM in the test on HCT-116 colon; 0.596 µM in the test with HCT-15 colon; 0.184 µM in the test with MALME-3M melanoma; 0.193 µM with MOLT-4 leukemia; 2.43 µM with NCI/ADR-RES ovarian. The GI50 in the test on OVCAR-5 ovarian was 1.28 µM; with SK-MEL-5 melanoma, 0.192 µM; with T-47D breast, 0.392 µM; with U251 CNS, 0.122 µM. Further, the TGI with A498 renal is 10.2 µM; in the test with HCT-116 colon, 1.1 µM; in the test on HCT-15 colon, 2.11 µM; with MALME-3M melanoma, 0.848 µM; in the test on MOLT-4 leukemia it was 0.709 µM; with NCI/ADR-RES ovarian, 16.6 µM. In addition, the TGI was 2.92 µM with OVCAR-5 ovarian, 0.784 µM in the test with SK-MEL-5 melanoma, 2.67 µM in the test on T-47D breast and 1.17 µM in the test with U251 CNS.
As to `CC(C)=CC[C@@H]1CC2(CC=C(C)C)C(=O)C(OC3(C(=O)c4ccccc4)C(=O)C4(CC=C(C)C)C[C@@H](CC=C(C)C)C(C)(C)C(CC=C(C)C)(C4=O)C3=O)(C(=O)c3ccccc3)C(=O)C(CC=C(C)C)(C2=O)C1(C)C` (stereo partly specified), the GI50 was 1.01 µM in the test on A498 renal; 0.953 µM in the test on HCT-116 colon; 1.41 µM in the test with HCT-15 colon; 0.901 µM with MALME-3M melanoma; 1.3 µM with MOLT-4 leukemia; 1.6 µM in the test on NCI/ADR-RES ovarian. Besides, the GI50 was 1.51 µM with OVCAR-5 ovarian, 0.806 µM with SK-MEL-5 melanoma, 1.19 µM in the test with T-47D breast and 1.64 µM in the test with U251 CNS. For the same compound, the TGI came out at 2.09 µM in the test with A498 renal; 2.3 µM with HCT-116 colon; 5.23 µM with HCT-15 colon; 2.18 µM with MALME-3M melanoma; 4.51 µM in the test with MOLT-4 leukemia; 5.67 µM in the test on NCI/ADR-RES ovarian. Also, the TGI is 8.06 µM in the test with OVCAR-5 ovarian, 1.58 µM in the test with SK-MEL-5 melanoma, 4.07 µM with T-47D breast and 5.34 µM in the test on U251 CNS.
In the case of `CC(=O)OCC1C(=O)OCC1C(=O)N1Cc2cc3ccccc3nc2C1` (stereo unspecified), the TGI was determined as 16.4 µM with A498 renal; 3.5 µM in the test with HCT-116 colon; 6.99 µM in the test on HCT-15 colon; 3.16 µM in the test with MALME-3M melanoma; 4.25 µM in the test with MOLT-4 leukemia; 7.56 µM with NCI/ADR-RES ovarian. Also, the TGI in the test with OVCAR-5 ovarian was found to be 15.8 µM; in the test on SK-MEL-5 melanoma, 23.1 µM; in the test with T-47D breast it was 5.69 µM; with U251 CNS it was 24.9 µM.
As for `Cc1ccc(NC(=O)c2ccc(CN3CCN(C)CC3)cc2)cc1Nc1nc(-c2cccnc2)cs1`, the GI50 in the test with A498 renal was 16 µM and > 10 µM; in the test with HCT-116 colon, 3.74 µM and 3.05 µM; in the test with HCT-15 colon, 4.52 µM and 3.18 µM; in the test on MALME-3M melanoma it was 7.14 µM and 2.26 µM; in the test with MOLT-4 leukemia it was 3.11 µM and 2.67 µM; in the test on NCI/ADR-RES ovarian it was 22.7 µM and 7.39 µM. In addition, the GI50 is 16.6 µM and > 10 µM in the test with OVCAR-5 ovarian; 2.46 µM in the test on SK-MEL-5 melanoma; 4.89 µM and 1.87 µM in the test on T-47D breast; 3.74 µM and 2.92 µM in the test with U251 CNS. The TGI was 29.6 µM and > 10 µM in the test with A498 renal; 14.8 µM and > 10 µM in the test on HCT-116 colon; 19.5 µM and > 10 µM in the test on HCT-15 colon; 21 µM and 6.92 µM with MALME-3M melanoma; 18.3 µM and 9.64 µM with MOLT-4 leukemia; > 86.7 µM with NCI/ADR-RES ovarian. Moreover, the TGI is 31.1 µM and > 10 µM in the test on OVCAR-5 ovarian; 9.32 µM with SK-MEL-5 melanoma; 22 µM and 7.06 µM in the test on T-47D breast; 14 µM and > 10 µM in the test with U251 CNS.
Consider `CCCCn1c(=O)[nH]c(N)c([C@@H]2c3c([nH]c(=O)n(CCCC)c3=O)Oc3ccc4ccccc4c32)c1=O`, for which the GI50 with A498 renal was 13.7 µM; in the test on HCT-116 colon, 1.53 µM; with HCT-15 colon, 1.67 µM; with MALME-3M melanoma, 2.34 µM; with MOLT-4 leukemia, 0.35 µM; in the test with NCI/ADR-RES ovarian, 2.82 µM. In addition, the GI50 is 3.63 µM in the test on OVCAR-5 ovarian, 3.06 µM in the test on SK-MEL-5 melanoma, 10.7 µM in the test with T-47D breast and 1.73 µM in the test with U251 CNS. For the same compound, the TGI with A498 renal amounted to 27.8 µM; in the test on HCT-116 colon it was 3.02 µM; in the test with HCT-15 colon, 3.41 µM; in the test with MALME-3M melanoma, 7.02 µM; in the test on MOLT-4 leukemia it was 1.74 µM; in the test with NCI/ADR-RES ovarian it was 8.84 µM. Moreover, the TGI with OVCAR-5 ovarian amounted to 13.8 µM; in the test with SK-MEL-5 melanoma, 10.7 µM; in the test with T-47D breast it was 37.6 µM; in the test on U251 CNS it was 3.32 µM.
As to `N#CCCNc1nonc1-c1nc2ccccc2n1CC(=O)c1ccc(N)cc1`, the GI50 in the test on A498 renal is < 0.01 µM; with HCT-116 colon it was 0.0285 µM; in the test on HCT-15 colon, 0.0334 µM; with MOLT-4 leukemia it was 0.0301 µM; with NCI/ADR-RES ovarian, < 0.01 µM; in the test on OVCAR-5 ovarian, 0.0593 µM. Further, the GI50 with SK-MEL-5 melanoma was 0.0271 µM; in the test with T-47D breast, 29 µM; in the test on U251 CNS it was 0.036 µM. Also, the TGI in the test on A498 renal was 0.0873 µM; with HCT-15 colon, > 100 µM; in the test on MALME-3M melanoma it was > 100 µM; in the test on NCI/ADR-RES ovarian, 0.0429 µM; in the test with OVCAR-5 ovarian, > 100 µM; in the test with SK-MEL-5 melanoma, 0.123 µM. Besides, the TGI in the test with T-47D breast and with U251 CNS was > 100 µM in each case.
In the case of `N#CC1=C(N)Oc2c(sc3c(Br)cccc23)C1c1ccc([N+](=O)[O-])cc1` (stereo unspecified), the GI50 in the test with A498 renal was 0.0434 µM; with HCT-116 colon it was 0.0799 µM; in the test on HCT-15 colon, 0.0948 µM; in the test with MALME-3M melanoma, 1.08 µM; in the test on MOLT-4 leukemia it was 0.223 µM; with NCI/ADR-RES ovarian, 0.0398 µM. The GI50 is 1.4 µM in the test with OVCAR-5 ovarian, 0.0652 µM with SK-MEL-5 melanoma, 0.84 µM in the test on T-47D breast and 0.151 µM in the test on U251 CNS. The TGI in the test with A498 renal came out at 0.935 µM; in the test on HCT-116 colon, 11 µM; in the test with HCT-15 colon, 10.5 µM; with MALME-3M melanoma it was 24.7 µM; in the test with MOLT-4 leukemia, 6.07 µM; with NCI/ADR-RES ovarian, 8.37 µM. The TGI is 16.4 µM in the test on OVCAR-5 ovarian, 4.45 µM with SK-MEL-5 melanoma, 25.3 µM with T-47D breast and 11.8 µM in the test with U251 CNS.
Take `CN1C(=O)C(c2c[nH]c3ccccc23)=C(c2c[nH]c3ccccc23)C1=O`: the GI50 is 3.55 µM with A498 renal; 6.75 µM in the test with HCT-116 colon; 5.77 µM in the test on HCT-15 colon; 7.44 µM with MALME-3M melanoma; 7.83 µM in the test with MOLT-4 leukemia; 6.66 µM with NCI/ADR-RES ovarian. Further, the GI50 was 9.88 µM in the test with OVCAR-5 ovarian, 4.5 µM in the test on SK-MEL-5 melanoma, 6.57 µM in the test with T-47D breast and 7.03 µM with U251 CNS. Besides, the TGI in the test with A498 renal was 17.2 µM; with HCT-116 colon, > 25 µM; in the test with HCT-15 colon it was > 25 µM; in the test on MALME-3M melanoma, > 20.8 µM; in the test with MOLT-4 leukemia, > 25 µM; with NCI/ADR-RES ovarian, > 25 µM. Besides, the TGI was > 25 µM in the test with OVCAR-5 ovarian, 10.9 µM in the test with SK-MEL-5 melanoma, > 25 µM in the test with T-47D breast and > 25 µM in the test with U251 CNS.
Regarding `Nc1c(C(=O)Nc2cccc(Cl)c2)sc2nc3c(cc12)C(=O)CCC3`, the GI50 in the test with A498 renal was 0.134 µM; with HCT-116 colon, 0.431 µM; in the test with HCT-15 colon, 0.411 µM; in the test on MALME-3M melanoma, 0.498 µM; in the test on MOLT-4 leukemia, > 100 µM; in the test on NCI/ADR-RES ovarian, 0.466 µM. Further, the GI50 was 2.09 µM with OVCAR-5 ovarian, 0.141 µM in the test with SK-MEL-5 melanoma, 0.422 µM in the test with T-47D breast and 0.599 µM in the test with U251 CNS. In addition, the TGI with HCT-116 colon, with HCT-15 colon, in the test with MALME-3M melanoma, in the test on MOLT-4 leukemia, in the test with NCI/ADR-RES ovarian and in the test with OVCAR-5 ovarian was > 100 µM each time. The TGI with SK-MEL-5 melanoma was > 100 µM; in the test on T-47D breast, > 100 µM; with U251 CNS, > 60.2 µM.
For `COc1ccc(-c2nc3sc(-c4cc(OC)c(OC)c(OC)c4)nn3c2/C=C2/C(=O)Nc3ccc(F)cc32)cc1`, the GI50 in the test with A498 renal was 12.2 µM; with HCT-116 colon, 14.2 µM; in the test on HCT-15 colon, 2.5 µM; with MALME-3M melanoma it was 9.15 µM; in the test with MOLT-4 leukemia it was 4.54 µM; with NCI/ADR-RES ovarian it was 21.9 µM. Besides, the GI50 with OVCAR-5 ovarian is 6.14 µM; with SK-MEL-5 melanoma, 1.64 µM; with T-47D breast, 2.01 µM; with U251 CNS, 1.77 µM. For the same compound, the TGI is 30.6 µM with A498 renal; 40.5 µM in the test with HCT-116 colon; > 100 µM with HCT-15 colon; 29.9 µM in the test on MALME-3M melanoma; > 100 µM with MOLT-4 leukemia; > 100 µM in the test on NCI/ADR-RES ovarian. For the same compound, the TGI in the test with OVCAR-5 ovarian came to 21.7 µM; in the test on SK-MEL-5 melanoma it was 3.65 µM; in the test with T-47D breast, 5.16 µM; in the test with U251 CNS, 3.39 µM.
In the case of `Nc1ccc(/C=C/c2ccc3ncccc3c2)cc1`, the GI50 in the test on A498 renal, in the test on HCT-116 colon, in the test with HCT-15 colon, with MALME-3M melanoma, in the test with MOLT-4 leukemia and in the test with NCI/ADR-RES ovarian was > 100 µM each time. Besides, the GI50 with OVCAR-5 ovarian, in the test with SK-MEL-5 melanoma, with T-47D breast and in the test on U251 CNS was > 100 µM in each case. For the same compound, the TGI with A498 renal, in the test with HCT-116 colon, in the test on HCT-15 colon, in the test on MALME-3M melanoma, in the test with MOLT-4 leukemia and in the test on NCI/ADR-RES ovarian was > 100 µM throughout. In addition, the TGI in the test on OVCAR-5 ovarian, with SK-MEL-5 melanoma, with T-47D breast and in the test with U251 CNS was > 100 µM in each case.
